How the values were obtained:
[1] = biological target: Leucine-rich repeat serine/threonine-protein kinase 2 (Homo sapiens, UniProt Q5S007); details: Compound concentration 1000.0 nM
[2] = biological target: 5-hydroxytryptamine receptor 6 (Homo sapiens) (UniProt P50406); assay: Inhibition of Serotonin (5-Hydroxytryptamine) 5-HT6 at 10 µM in the Eurofins-Panlabs radioligand binding assay (Eurofins_assay_272200); details: Compound concentration 10.0 uM
[3] = biological target: RAC-beta serine/threonine-protein kinase (Homo sapiens) (UniProt P31751); assay: AKT2 (PKB beta) Kinase screen; details: Compound concentration 1.0 uM
[4] = biological target: Eukaryotic elongation factor 2 kinase (Homo sapiens) (UniProt O00418); assay: EEF2K Kinase screen; details: Compound concentration 1.0 uM
[5] = test system: Epidermal growth factor receptor (Homo sapiens), P00533 [L861Q]; assay: EGFR (ErbB1) L861Q Kinase screen; details: Compound concentration 1.0 uM
[6] = biological target: Homeodomain-interacting protein kinase 2 (Homo sapiens) (UniProt Q9H2X6); assay: HIPK2 Kinase screen; details: Compound concentration 1.0 uM
[7] = biological target: T1, Mitogen-activated protein kinase kinase kinase 7 (Homo sapiens) (UniProt O43318); assay: MAP3K7/MAP3K7IP1 (TAK1-TAB1) Kinase screen; details: Compound concentration 1.0 uM
T1 sequence (whole entry): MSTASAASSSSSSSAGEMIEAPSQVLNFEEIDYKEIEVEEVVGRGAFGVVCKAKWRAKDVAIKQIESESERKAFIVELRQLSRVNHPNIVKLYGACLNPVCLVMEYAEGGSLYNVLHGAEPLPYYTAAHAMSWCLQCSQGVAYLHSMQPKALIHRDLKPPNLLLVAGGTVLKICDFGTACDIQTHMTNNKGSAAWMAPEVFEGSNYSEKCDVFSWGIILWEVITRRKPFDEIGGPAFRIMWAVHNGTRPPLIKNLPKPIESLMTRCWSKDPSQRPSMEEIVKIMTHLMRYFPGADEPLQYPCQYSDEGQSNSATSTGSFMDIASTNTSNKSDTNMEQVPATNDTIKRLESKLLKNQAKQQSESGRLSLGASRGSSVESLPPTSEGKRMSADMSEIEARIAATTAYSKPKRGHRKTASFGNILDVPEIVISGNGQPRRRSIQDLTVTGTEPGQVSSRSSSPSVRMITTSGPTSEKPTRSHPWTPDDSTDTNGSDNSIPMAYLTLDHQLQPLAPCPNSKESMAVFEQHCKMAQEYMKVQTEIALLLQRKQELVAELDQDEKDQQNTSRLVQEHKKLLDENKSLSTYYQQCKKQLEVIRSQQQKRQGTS

[8] = biological target: Serine/threonine-protein kinase 26 (Homo sapiens) (UniProt Q9P289); assay: MST4 Kinase screen; details: Compound concentration 1.0 uM
[9] = biological target: Serine/threonine-protein kinase PAK 3 (Homo sapiens) (UniProt O75914); assay: PAK3 Kinase screen; details: Compound concentration 1.0 uM
[10] = test system: Platelet-derived growth factor receptor alpha (Homo sapiens), P16234 [T674I]; assay: PDGFRA T674I Kinase screen; details: Compound concentration 1.0 uM
[11] = biological target: Phosphatidylinositol 4-kinase beta (Homo sapiens) (UniProt Q9UBF8); assay: PI4KB (PI4K beta) Kinase screen; details: Compound concentration 1.0 uM
[12] = biological target: Phosphatidylinositol 4-phosphate 3-kinase C2 domain-containing subunit alpha (Homo sapiens) (UniProt O00443); assay: PIK3C2A (PI3K-C2 alpha) Kinase screen; details: Compound concentration 1.0 uM
[13] = biological target: Serine/threonine-protein kinase SIK2 (Homo sapiens) (UniProt Q9H0K1); assay: SNF1LK2 Kinase screen; details: Compound concentration 1.0 uM
[14] = biological target: T2, Serine/threonine-protein kinase 17A (Homo sapiens) (UniProt Q9UEE5); assay: STK17A (DRAK1) Kinase screen; details: Compound concentration 1.0 uM
T2 sequence (whole entry): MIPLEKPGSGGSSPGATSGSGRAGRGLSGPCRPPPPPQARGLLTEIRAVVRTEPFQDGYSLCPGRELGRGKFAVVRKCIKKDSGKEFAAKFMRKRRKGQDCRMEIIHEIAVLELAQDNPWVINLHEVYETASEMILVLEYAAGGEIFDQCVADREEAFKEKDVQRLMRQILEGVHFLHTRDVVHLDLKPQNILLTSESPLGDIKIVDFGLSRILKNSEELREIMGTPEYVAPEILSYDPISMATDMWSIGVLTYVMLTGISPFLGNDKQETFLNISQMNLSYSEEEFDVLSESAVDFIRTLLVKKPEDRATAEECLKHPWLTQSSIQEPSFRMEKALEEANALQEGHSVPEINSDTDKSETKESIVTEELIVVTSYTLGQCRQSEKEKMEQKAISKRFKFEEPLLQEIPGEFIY

[15] = biological target: Serine/threonine-protein kinase 33 (Homo sapiens) (UniProt Q9BYT3); assay: STK33 Kinase screen; details: Compound concentration 1.0 uM
[16] = biological target: Retinoic acid receptor RXR-alpha (Homo sapiens) (UniProt P19793); assay: Retinoid X Receptor RXRalpha Eurofins-Panlabs radioligand binding assay; details: Compound concentration 10.0 uM
[17] = species on record: Homo sapiens; assay: Somatostatin sst2 Eurofins-Panlabs radioligand binding assay; parameters: ligand concentration 0.03 nM; details: Compound concentration 10.0 uM
[18] = biological target: Mu-type opioid receptor (Homo sapiens) (UniProt P35372); details: Compound concentration 10.0 uM
[19] = biological target: Gastrin/cholecystokinin type B receptor (Homo sapiens) (UniProt P32239); details: Compound concentration 10.0 uM
[20] = biological target: Testis-specific serine/threonine-protein kinase 1 (TSSK1B) (Homo sapiens) (UniProt Q9BXA7); assay: STK22D (TSSK1) Kinase screen; details: Compound concentration 1.0 uM

Mu-type opioid receptor (Homo sapiens), sequence (P35372 whole entry): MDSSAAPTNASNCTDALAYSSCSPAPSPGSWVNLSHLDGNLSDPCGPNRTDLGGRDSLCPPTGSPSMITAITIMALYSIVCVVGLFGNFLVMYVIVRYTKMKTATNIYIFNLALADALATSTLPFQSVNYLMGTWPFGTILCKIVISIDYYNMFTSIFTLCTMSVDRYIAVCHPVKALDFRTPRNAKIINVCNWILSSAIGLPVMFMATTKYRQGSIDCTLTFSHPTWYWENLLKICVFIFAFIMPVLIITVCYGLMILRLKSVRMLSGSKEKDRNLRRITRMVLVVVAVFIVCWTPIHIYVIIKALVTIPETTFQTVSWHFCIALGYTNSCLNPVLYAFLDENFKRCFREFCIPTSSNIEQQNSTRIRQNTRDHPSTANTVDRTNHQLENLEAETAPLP
Phosphatidylinositol 4-kinase beta (Homo sapiens), sequence (Q9UBF8 2-816 limits assumed): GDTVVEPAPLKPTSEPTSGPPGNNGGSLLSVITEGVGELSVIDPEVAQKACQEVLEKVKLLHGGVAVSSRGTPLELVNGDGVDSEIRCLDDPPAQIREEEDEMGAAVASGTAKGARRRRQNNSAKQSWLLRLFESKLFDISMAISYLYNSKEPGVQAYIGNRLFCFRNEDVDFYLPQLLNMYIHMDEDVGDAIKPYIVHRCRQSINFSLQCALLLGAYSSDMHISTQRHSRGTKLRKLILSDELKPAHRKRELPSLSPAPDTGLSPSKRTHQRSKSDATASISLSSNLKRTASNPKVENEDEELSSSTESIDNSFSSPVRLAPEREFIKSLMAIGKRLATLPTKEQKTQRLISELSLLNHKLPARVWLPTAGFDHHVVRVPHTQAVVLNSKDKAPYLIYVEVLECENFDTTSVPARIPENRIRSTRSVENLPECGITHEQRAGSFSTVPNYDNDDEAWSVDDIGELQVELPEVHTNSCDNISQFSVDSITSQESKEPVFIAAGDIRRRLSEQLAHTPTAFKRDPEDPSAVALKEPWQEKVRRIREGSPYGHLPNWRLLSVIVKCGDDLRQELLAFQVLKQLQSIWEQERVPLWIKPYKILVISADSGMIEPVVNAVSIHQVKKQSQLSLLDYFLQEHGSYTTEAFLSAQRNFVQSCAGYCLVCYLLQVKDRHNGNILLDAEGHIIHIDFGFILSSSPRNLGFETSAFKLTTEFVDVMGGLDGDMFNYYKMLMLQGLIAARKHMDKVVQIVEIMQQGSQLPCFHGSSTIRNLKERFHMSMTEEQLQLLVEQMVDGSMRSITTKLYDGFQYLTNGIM
5-hydroxytryptamine receptor 6 (Homo sapiens), sequence (P50406 whole entry): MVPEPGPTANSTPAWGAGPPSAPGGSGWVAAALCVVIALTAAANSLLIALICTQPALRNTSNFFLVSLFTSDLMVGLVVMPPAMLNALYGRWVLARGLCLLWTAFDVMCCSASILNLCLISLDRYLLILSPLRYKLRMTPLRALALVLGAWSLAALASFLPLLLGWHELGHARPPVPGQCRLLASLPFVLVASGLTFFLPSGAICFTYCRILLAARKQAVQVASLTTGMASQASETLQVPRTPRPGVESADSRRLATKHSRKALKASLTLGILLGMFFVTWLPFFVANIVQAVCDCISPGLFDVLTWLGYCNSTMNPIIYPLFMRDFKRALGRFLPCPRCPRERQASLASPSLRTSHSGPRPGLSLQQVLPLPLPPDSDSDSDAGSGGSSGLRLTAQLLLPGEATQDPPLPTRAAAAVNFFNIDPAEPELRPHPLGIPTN
Retinoic acid receptor RXR-alpha (Homo sapiens), sequence (P19793 whole entry): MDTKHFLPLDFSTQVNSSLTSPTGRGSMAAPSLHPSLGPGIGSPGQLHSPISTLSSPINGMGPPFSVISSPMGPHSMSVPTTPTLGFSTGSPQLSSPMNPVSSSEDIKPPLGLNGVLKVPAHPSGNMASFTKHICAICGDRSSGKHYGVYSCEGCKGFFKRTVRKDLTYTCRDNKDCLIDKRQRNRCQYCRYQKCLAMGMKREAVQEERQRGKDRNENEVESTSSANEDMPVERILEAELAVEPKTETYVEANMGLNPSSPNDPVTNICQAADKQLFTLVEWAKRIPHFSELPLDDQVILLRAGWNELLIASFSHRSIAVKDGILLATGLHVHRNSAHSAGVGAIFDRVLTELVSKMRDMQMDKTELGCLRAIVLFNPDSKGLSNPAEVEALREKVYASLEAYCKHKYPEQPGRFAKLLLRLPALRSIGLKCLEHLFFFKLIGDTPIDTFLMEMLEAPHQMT
Gastrin/cholecystokinin type B receptor (Homo sapiens), sequence (P32239 whole entry): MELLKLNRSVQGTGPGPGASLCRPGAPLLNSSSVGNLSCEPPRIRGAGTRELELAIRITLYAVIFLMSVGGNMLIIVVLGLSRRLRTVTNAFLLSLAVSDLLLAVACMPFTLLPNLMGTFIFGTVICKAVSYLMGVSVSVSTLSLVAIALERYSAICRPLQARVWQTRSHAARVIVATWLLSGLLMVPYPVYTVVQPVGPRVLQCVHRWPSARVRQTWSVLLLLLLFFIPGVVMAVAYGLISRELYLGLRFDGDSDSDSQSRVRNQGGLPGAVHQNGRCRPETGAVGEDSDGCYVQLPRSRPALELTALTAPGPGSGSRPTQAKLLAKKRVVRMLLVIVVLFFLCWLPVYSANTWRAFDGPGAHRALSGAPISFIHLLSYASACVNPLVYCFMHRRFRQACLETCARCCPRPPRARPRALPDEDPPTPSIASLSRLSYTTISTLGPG
Serine/threonine-protein kinase PAK 3 (Homo sapiens), sequence (O75914 whole entry, looked up): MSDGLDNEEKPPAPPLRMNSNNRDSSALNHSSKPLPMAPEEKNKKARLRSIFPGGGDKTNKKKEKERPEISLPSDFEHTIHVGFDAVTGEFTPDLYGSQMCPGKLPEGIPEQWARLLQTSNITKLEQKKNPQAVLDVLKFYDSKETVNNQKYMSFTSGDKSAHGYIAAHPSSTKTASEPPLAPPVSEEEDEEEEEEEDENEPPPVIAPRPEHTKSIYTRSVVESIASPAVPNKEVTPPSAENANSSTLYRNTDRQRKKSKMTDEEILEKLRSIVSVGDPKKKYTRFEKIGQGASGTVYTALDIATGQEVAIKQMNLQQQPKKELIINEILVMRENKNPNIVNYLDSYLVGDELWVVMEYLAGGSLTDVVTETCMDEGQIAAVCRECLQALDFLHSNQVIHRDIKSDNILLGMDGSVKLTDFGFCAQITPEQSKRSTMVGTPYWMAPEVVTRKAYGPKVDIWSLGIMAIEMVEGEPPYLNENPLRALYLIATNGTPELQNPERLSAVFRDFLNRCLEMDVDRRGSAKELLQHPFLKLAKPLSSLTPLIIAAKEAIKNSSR
Serine/threonine-protein kinase 33 (Homo sapiens), sequence (Q9BYT3 whole entry, looked up): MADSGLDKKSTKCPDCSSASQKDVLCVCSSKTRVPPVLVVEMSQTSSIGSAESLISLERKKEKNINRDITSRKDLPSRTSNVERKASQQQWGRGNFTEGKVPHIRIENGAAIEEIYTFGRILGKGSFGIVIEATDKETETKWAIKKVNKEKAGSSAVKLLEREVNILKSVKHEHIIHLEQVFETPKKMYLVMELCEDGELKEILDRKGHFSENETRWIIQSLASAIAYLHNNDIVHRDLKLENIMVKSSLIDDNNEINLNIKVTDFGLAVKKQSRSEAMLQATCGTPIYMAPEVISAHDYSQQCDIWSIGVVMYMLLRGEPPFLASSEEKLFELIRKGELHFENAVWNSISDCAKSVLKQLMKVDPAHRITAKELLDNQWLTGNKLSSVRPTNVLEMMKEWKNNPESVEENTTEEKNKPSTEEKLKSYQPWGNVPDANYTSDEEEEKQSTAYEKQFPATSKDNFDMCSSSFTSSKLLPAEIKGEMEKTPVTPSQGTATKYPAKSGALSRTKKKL
Platelet-derived growth factor receptor alpha (Homo sapiens), P16234 [T674I], sequence (P16234 whole entry T674I): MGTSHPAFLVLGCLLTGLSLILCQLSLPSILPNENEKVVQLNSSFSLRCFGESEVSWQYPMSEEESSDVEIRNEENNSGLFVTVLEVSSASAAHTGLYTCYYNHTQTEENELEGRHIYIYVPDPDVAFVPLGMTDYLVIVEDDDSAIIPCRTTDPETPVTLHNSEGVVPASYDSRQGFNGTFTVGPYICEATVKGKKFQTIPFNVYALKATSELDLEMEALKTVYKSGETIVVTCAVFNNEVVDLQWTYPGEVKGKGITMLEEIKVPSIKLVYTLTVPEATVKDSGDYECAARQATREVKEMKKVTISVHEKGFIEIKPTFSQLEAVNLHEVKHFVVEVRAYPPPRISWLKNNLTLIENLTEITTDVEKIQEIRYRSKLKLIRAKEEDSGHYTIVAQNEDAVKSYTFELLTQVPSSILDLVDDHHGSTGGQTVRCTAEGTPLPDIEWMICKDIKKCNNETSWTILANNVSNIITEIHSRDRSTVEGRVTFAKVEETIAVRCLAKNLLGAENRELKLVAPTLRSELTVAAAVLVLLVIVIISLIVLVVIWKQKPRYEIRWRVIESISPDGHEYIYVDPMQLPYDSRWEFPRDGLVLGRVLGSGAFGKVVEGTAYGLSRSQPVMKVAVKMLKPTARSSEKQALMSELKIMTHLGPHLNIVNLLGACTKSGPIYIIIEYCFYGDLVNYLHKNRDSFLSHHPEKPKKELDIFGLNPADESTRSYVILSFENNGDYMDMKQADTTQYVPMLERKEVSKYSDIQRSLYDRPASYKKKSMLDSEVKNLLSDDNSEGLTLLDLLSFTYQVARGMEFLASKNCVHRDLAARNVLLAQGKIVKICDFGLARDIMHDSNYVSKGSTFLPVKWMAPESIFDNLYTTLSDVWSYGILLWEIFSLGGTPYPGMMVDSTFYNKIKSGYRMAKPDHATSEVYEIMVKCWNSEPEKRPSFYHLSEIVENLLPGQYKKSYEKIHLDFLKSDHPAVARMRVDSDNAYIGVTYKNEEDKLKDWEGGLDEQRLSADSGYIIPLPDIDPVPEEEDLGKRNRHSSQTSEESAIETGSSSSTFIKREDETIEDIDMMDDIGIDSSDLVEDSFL

C[C@@H]1CN(c2cc(-c3nn(C)c4ccc(OC5(C)CC5)cc34)ncn2)C[C@H](C)O1 [MLi-2-NC]
active: residual activity [1] 22%

C[C@@H]1CN(c2cc(-c3n[nH]c4ccc(OC5(C)CC5)cc34)ncn2)C[C@H](C)O1 [MLi-2]
inactive: inhibition [2] 3% | inhibition [3] 5.53% | inhibition [4] 4.28% | inhibition [5] 9.16% | inhibition [6] 5.33% | inhibition [7] -4.42% | inhibition [8] 6.89% | inhibition [9] 10.9% | inhibition [10] 23.5% | inhibition [11] 1.46% | inhibition [12] -0.741% | inhibition [13] 7.08% | inhibition [14] -2.27% | inhibition [15] 24.3% | inhibition [16] 4% | inhibition [17] 13% | inhibition [18] 17% | inhibition [19] 15% | inhibition [20] 15.8%

Source: ChEMBL document CHEMBL4507291 (2021)
